Active and inactive are the calls of the source. The rule behind the calls is not given here.
Assays:
A-375 [1] = assay: Induction of ROS generation in human A-375 cells assessed as reduction in PPARgamma expression level at 1.25 uM incubated for 24 hrs; format: functional, cell-based
B16-F10 [2] = assay: Antitumor activity against mouse Dil-stained B16-F10 cells inoculated in zebrafish assessed as reduction in tumor growth by measuring tumor fluorescence intensity at 0.31 to 1.25 uM by confocal microscopy analysis; format: functional, cell-based; conditions: dose 0.31-1.25 µM
B16-F10 [3] = assay: Inhibition of cell migration in mouse B16-F10 cells after 24 hrs by transwell assay; format: functional, cell-based; conditions: dose 0.31-1.25 µM
[4] = Drug uptake in human HeLa cells assessed as fluorescence intensity at 2.5 uM incubated for 1 hr by confocal laser scanning microscopic analysis; format: ADME, cell-based
A-375 [5] = assay: Induction of ROS generation in human A-375 cells assessed as reduction in GPX1 expression level at 0.31 to 1.25 uM incubated for 24 hrs; format: functional, cell-based; conditions: dose 0.31-1.25 µM
[6] = Toxicity in C57BL/6J mouse inoculated with mouse B16-F10 cells assessed as effect on lung morphology at 2 mg/kg, ip administered every other day for 22 days by H and E staining based assay; format: organism-based; conditions: in vivo, 528 h, time 22 day
B16-F10 [7] = assay: Antitumor activity against mouse B16-F10 cells inoculated in C57BL/6J mouse assessed as reduction in Ki-67 expression at 0.5 to 2 mg/kg, ip administered every other day and measured on day 22 by immunohistochemistry analysis; format: functional, organism-based; conditions: dose 0.5-2 mg/kg, time 22.0 day
A-375 [8] = assay: Induction of ROS generation in human A-375 cells assessed as reduction in SOD2 expression level at 0.31 to 1.25 uM incubated for 24 hrs; format: functional, cell-based; conditions: dose 0.31-1.25 µM
B16-F10 [9] = assay: Antitumor activity against mouse B16-F10 cells inoculated in mouse assessed as increase in E-cadherin expression at 2 mg/kg, ip administered every other day and measured on day 18 by immunohistochemistry analysis; format: functional, organism-based; conditions: time 18.0 day
B16-F10 [10] = assay: Antitumor activity against mouse B16-F10 cells inoculated in mouse assessed as reduction in lung melanoma nodules at 2 mg/kg, ip administered every other day and measured on day 18 by immunohistochemistry analysis; format: functional, organism-based; conditions: time 18.0 day
[11] = Renal toxicity in C57BL/6J mouse inoculated with mouse B16-F10 cells assessed as change in CREA level at 2 mg/kg, ip administered every other day for 22 days; format: organism-based; conditions: in vivo, 528 h, time 22 day
B16-F10 [12] = assay: Induction of ROS generation in mouse B16-F10 cells assessed as reduction in PPARgamma expression level at 1.25 uM incubated for 24 hrs; format: functional, cell-based
A-375 [13] = assay: Inhibition of Wnt/beta-catenin signaling in human A-375 cells assessed as reduction in beta-catenin expression at 1.25 uM preincubated with rosiglitazone for 24 hrs followed by compound addition and measured after 24 hrs in presence of H2O2; format: cell-based
[14] = Drug uptake in human A-375 cells assessed as fluorescence intensity at 2.5 uM incubated for 1 hr by confocal laser scanning microscopic analysis; format: ADME, cell-based; conditions: a-375, 1 h
[15] = Drug uptake in mouse B16-F10 cells assessed as fluorescence intensity at 2.5 uM incubated for 1 hr by confocal laser scanning microscopic analysis; format: ADME, cell-based; conditions: b16-f10, 1 h
B16-F10 [16] = assay: Induction of cell cycle arrest in mouse B16-F10 cells assessed as P27 protein accumulation at 0.31 to 1.25 uM after 24 hrs by Western blotting analysis; format: functional, cell-based; conditions: dose 0.31-1.25 µM
B16-F10 [17] = assay: Induction of cell cycle arrest in mouse B16-F10 cells assessed as reduction in Cdk2 protein level at 0.31 to 1.25 uM after 24 hrs by Western blotting analysis; format: functional, cell-based; conditions: dose 0.31-1.25 µM
[18] = Cytotoxicity against mouse B16-F10 cells assessed as cell viability at 40 uM incubated for 24 hrs by MTT assay; format: toxicity, cell-based; conditions: read-out: Activity
[19] = Toxicity in C57BL/6J mouse inoculated with mouse B16-F10 cells assessed as effect on spleen morphology at 2 mg/kg, ip administered every other day for 22 days by H and E staining based assay; format: organism-based; conditions: in vivo, 528 h, time 22 day
A-375 [20] = assay: Inhibition of tumor metastasis in human A-375 cells assessed as reduction in wound healing after 24 hrs; format: functional, cell-based; conditions: dose 0.08-1.25 µM
A-375 [21] = assay: Inhibition of cell metastasis in human A-375 cells assessed as reduction in MMP2 protein level at 0.31 to 1.25 uM after 24 hrs by Western blotting analysis; format: functional, cell-based; conditions: dose 0.31-1.25 µM
HeLa = assay: Antiproliferative activity against human HeLa cells assessed as inhibition of cell growth at 0.31 uM after 72 hrs by MTT assay; format: functional; set-up: scale not given: the % may be the effect or the level left
A-375 [22] = assay: Inhibition of colony formation in human A-375 cells at less than 0.63 uM by crystal violet staining based assay; format: functional, cell-based
[23] = Toxicity in C57BL/6J mouse inoculated with mouse B16-F10 cells assessed as effect on heart morphology at 2 mg/kg, ip administered every other day for 22 days by H and E staining based assay; format: organism-based; conditions: in vivo, 528 h, time 22 day
B16-F10 [24] = assay: Induction of ROS generation in mouse B16-F10 cells assessed as reduction in SOD2 expression level at 1.25 uM preincubated with rosiglitazone for 24 hrs followed by compound addition for 24 hrs; format: functional, cell-based

SMILES: CC[N+]1=C(/C=C/C2=C(Cl)C(=C/C=C3\N(CCCCCC(=O)O/C(=N/C4CCCCC4)NC4CCCCC4)c4ccccc4C3(C)C)/CCC2)C(C)(C)c2ccccc21.[Br-]
- Activity (A-375 [1]): Active
- Activity (B16-F10 [2]): Active
- inhibition (B16-F10 [3]): Dose-Dependent Effect
- Drug uptake [4]: Active
- Activity (A-375 [5]): Active
- Activity [6]: Non-Toxic
- Activity (B16-F10 [7]): Active
- Activity (A-375 [8]): Active
- Activity (B16-F10 [9]): Active
- Activity (B16-F10 [10]): Active
- Activity [11]: Non-Toxic
- Activity (B16-F10 [12]): Active
- inhibition (A-375 [13]): inactive
- Drug uptake [14]: Active
- Drug uptake [15]: Active
- Activity (B16-F10 [16]): Active
- Activity (B16-F10 [17]): Active
- viability at 24 h, 40 µM [18]: 90%
- Activity [19]: Non-Toxic
- inhibition (A-375 [20]): Dose-Dependent Effect
- inhibition (A-375 [21]): Active
- Activity (HeLa): 70%
- inhibition (A-375 [22]): Active
- Activity [23]: Non-Toxic
- Activity (B16-F10 [24]): inactive

Source: ChEMBL document CHEMBL5620390, “A novel multifunctional mitochondrion-targeting NIR fluorophore probe inhibits tumour proliferation and metastasis through the PPARγ/ROS/β-catenin pathway” (Eur J Med Chem, 2023)
